Common to all, as to test: Fluorescence Polarization Assay
Details in all cases: pH 7.35
(Fluorescence polarisation rises when a labelled molecule tumbles more slowly, as on binding a larger partner.)

Assay [1] concerns the target T1, Tyrosine-protein kinase transforming protein Src [144-247,T181V,C186A,K201L] (Rous sarcoma virus subgroup B (strain Schmidt-Ruppin), UniProt P63185, C186A/K201L/T181V).
T1 construct: 144-247
How it is done:
(§1) Three fluorescein-labeled peptide probes, FITC-sulfopeptide, FITC-phosphopeptide, and FITC-tyrosinepeptide (FITC, fluorescein isothiocyanate), were used. Individual peptide probes were dissolved in assay buffer containing potassium phosphate (20 mM, pH 7.35), NaCl (100 mM), DTT (2 mM), and bovine gamma globulin (0.1%). Aliquots of the peptide probe solution were distributed to 96-well fluorescence plate to reach a final concentration of 10 nM. After the addition of indicated amounts of SH2 domain protein, the assay solutions were mixed and incubated at RT in the dark for 25 min. Fluorescence polarization experimentswere performed on a Synergy H1 plate reader (BioTek Instruments, Inc.) equipped with standard filter cube (λEx = 485 nm, BP = 20 nm; λEm = 528 nm, BP = 20 nm). A standard sample layout in a 96-well plate was designed so that a single plate contains all the samples for one SH2 domain variant. Triplicate samples at each protein concentration were arrayed in the plat

The target in assay [2] is T2, Tyrosine-protein kinase transforming protein Src [144-247,E177Q,S178L,E179A,T180R,T181V,C186A,K201L] (Rous sarcoma virus subgroup B (strain Schmidt-Ruppin), UniProt P63185, C186A/E177Q/E179A/K201L/S178L/T180R/T181V).
T2 construct: 144-247
T2 sequence (P63185 144-247 E176Q/S177L/E178A/T179R/T180V/C185A/K200L): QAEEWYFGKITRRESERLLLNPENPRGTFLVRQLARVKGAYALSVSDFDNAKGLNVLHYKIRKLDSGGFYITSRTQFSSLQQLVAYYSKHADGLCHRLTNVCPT
The method, then:
as §1

Assay [3] concerns the target T3, Tyrosine-protein kinase transforming protein Src [144-247,E177R,S178L,E179Q,T180R,T181V,C186A,K201L] (Rous sarcoma virus subgroup B (strain Schmidt-Ruppin), UniProt P63185, C186A/E177R/E179Q/K201L/S178L/T180R/T181V).
T3 construct: 144-247
How it is done:
as §1

Assay [4] has as its target T4, Tyrosine-protein kinase transforming protein Src [144-247] (Rous sarcoma virus subgroup B (strain Schmidt-Ruppin), UniProt P00524).
T4 construct: 144-247
The method, then:
as §1

T4 sequence (P00524 144-247): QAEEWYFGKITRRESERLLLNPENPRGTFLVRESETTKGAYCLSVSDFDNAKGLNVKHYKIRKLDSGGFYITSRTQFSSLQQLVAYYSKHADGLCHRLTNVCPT
T3 sequence (P63185 144-247 E176R/S177L/E178Q/T179R/T180V/C185A/K200L): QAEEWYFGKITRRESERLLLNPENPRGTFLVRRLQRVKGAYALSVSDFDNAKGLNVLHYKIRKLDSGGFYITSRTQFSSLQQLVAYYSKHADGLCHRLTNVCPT
T1 sequence (P63185 144-247 T180V/C185A/K200L): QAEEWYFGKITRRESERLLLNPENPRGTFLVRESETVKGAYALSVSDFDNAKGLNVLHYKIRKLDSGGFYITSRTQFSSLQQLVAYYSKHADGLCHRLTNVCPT

With `N[C@@H](Cc1ccc(OP(=O)(O)O)cc1)C(=O)O` [Phosphotyrosine (pTyr)], the Kd (in general, the concentration at which binding is half-saturated) in assay [1] is 4.9 nM; in assay [2], 7.7 nM; in assay [3], 2.5 nM; in assay [4] it was 61 nM.

Consider `N[C@@H](Cc1ccc(OS(=O)(=O)O)cc1)C(=O)O` [Sulfotyrosine (sTyr)], for which the Kd in assay [1] worked out at 349 nM; in assay [2] it was 10.4 nM; in assay [3], 5.6 nM; in assay [4] it was 9620 nM.
